In brackets after ≈: the same amount, converted by molar mass.
Key:
[1] = tested on: Staphylococcus aureus ATCC 25923; test: Determination of MIC and MBC, Staphylococcus aureus; assay type: cell-based; settings: for MBC: ATCC25923; for MIC: ATCC25923, read-out: MIC
Description: (§1) A series of test tubes was prepared containing the culture broth inoculated with the test micro-organism and the substance to be tested was introduced at decreasing scalar concentrations. […] The test tubes in which the microbial population developed were then determined by observing visually the turbidity that is indicative of growth. Test tubes in which the substance is present at a sufficient concentration to inhibit growth remain clear. When the nature itself of the sample prevents visual reading or if it is wished to determine whether the lack of development is due to a microbiostatic or microbicidal action, transfers are made to appropriate agar media for confirmation. The concentration of sample at which growth of the micro-organisms is inhibited is considered to be the Minimum Inhibitory Concentration (MIC), while that at which viable micro-organisms are no longer present is considered to be the Minimum Bactericidal Concentration (MBC) The antibacterial activity of these substances against Staphylococcus aureus acnes ATCC 25923 and Staphylococcus epidermidis ATCC 12228 was tested according to the above-described method.

[2] = tested on: Staphylococcus epidermidis ATCC 12228; test: Determination of MIC and MBC, Staphylococcus epidermidis; assay type: cell-based; settings: for MBC: ATCC12228; for MIC: ATCC12228, read-out: MIC
Description: as §1

[3] = tested on: Propionibacterium acnes ATCC 11827; test: Determination of MIC and MBC, P. acnes; assay type: cell-based; settings: Cutibacterium acnes, ATCC11827; Propionibacterium acnes ATCC 11827, 2.6×10^4 cells per milliliter
Description: as §1, with “(MBC) In a further set of experiments we tested the” for “(MBC) The”, “of Salix alba extract and 1,2-decanediol, a substance which is known to show antibacterial activity” for “of these substances”, “against P. acnes, alone” for “against Staphylococcus aureus acnes ATCC 25923”, “and in combination” for “and Staphylococcus epidermidis ATCC 12228 was tested”, “method. The microbial strain used was Propionibacterium acnes ATCC 11827 titrated at a concentration of 2.6×10^4 cells per milliliter of medium.” for “method.”

[4] = tested on: TNFalpha; test: Anti-inflammatory activity: LPS-induced TNFalpha release in HaCat keratinocytes (ELISA); assay type: cell-based, human
Text: (§2) The aim of the test was the evaluation of the anti-inflammatory activity of Salix alba extract, 1,2-decanediol and their combination by means of the study of TNFalpha, IL1alpha, IL8 synthesis modulation in a biological experimental model (keratinocyte cell culture HaCat).
(§3) In order to stimulate the inflammatory process in our experimental model, lipopolysaccharides (LPS) were selected. LPS are pro-inflammatory mediators secreted by bacteria, e.g. by P. acnes.
(§4) 1,2-decanediol (SMAL) was emulsified with corn oil (37° C.) in mechanical agitation and addition of culture medium, starting from the following ratio: 0.05 g emulsified with 100 μl corn oil in a final volume of culture medium of 1 ml (37° C.).
(§5) Salix alba extract (WMAL) was direct diluted in culture medium, starting from the following ratio: 0.05 g in 1 ml (37° C.); subsequent dilutions in culture medium (37° C.). […]
(§6) At the end of the monitored experimental period, cytokine levels were measured by means of ELISA assay. […]
(§7) Commercial ELISA kits were used for the determination of cytokine quantity.
(§8) The quantitative determination uses a calibration curve made-up of standard known and growing concentrations of standard cytokine. […]
(§9) In order to compare the two different work sessions, the obtained data were normalized in a 0-100% scale, in which CTR− is 0 and CTR+ is 100%; all the other data were calculated in this interval.

[5] = tested on: IL8; test: Anti-inflammatory activity: LPS-induced IL8 release in HaCat keratinocytes (ELISA); assay type: cell-based, human
Text: as §2, §3, §4, §5, §6, §7, §8, §9

[6] = tested on: IL-6; test: Anti-inflammatory activity: LPS-induced IL-6 release in HaCat keratinocytes (ELISA), as headed in Table 3; assay type: cell-based, human; settings: HaCat + LPS 10 ng/ml; CTR− is 0, CTR+ is 100%; WMAL 0.4%, SMAL 0.02%
[7] = tested on: IL1alpha; test: Anti-inflammatory activity: LPS-induced IL1alpha release in HaCat keratinocytes (ELISA); assay type: cell-based, human
Text: as §2, §3, §4, §5, §6, §7, §8, §9

[8] = tested on: Propionibacterium acnes ATCC 11827; settings: common knowledge; cited from earlier work
[9] = HaCat + LPS 10 ng/ml, CTR− is 0, CTR+ is 100%, WMAL 0.4%, SMAL 0.02%

| MIC [1] | MIC [2] | MIC [3] | SMILES | MBC [1] | MBC [2] | MBC [3] | antibacterial activity against P. acnes, as known (in words) [8] | further results |
| --- | --- | --- | --- | --- | --- | --- | --- | --- |
| 6.25 µg/mL (≈ 24.4 µM) | 6.25 µg/mL (≈ 24.4 µM) |  | C=C[C@@](C)(/C=C/c1ccc(O)cc1)CCC=C(C)C [Bakuchiol] | 100 µg/mL (≈ 390 µM) | 100 µg/mL (≈ 390 µM) |  |  |  |
|  |  | 620 µg/mL | CCCCCCCCC(O)CO (stereo not shown) [1,2-decanediol] |  |  | 1250 µg/mL | effective | effect on LPS-induced release of TNFalpha (in words) ([4]; HaCat + LPS): significantly reduce; TNF-ALPHA, normalized data 0-100% [4, 9]: 18.45%; effect on LPS-induced release of IL8 (in words) ([5]; HaCat + LPS): significantly reduce; IL-8, normalized data 0-100% [5, 9]: 34.56%; IL-6, normalized data 0-100% [6]: 61.69%; effect on LPS-induced release of IL1alpha (in words) [7]: significantly reduce |
|  | 500 µg/mL (≈ 2500 µM) |  | CCCCCCCCCCCC(=O)O [Lauric Acid, Lauric acid] |  | 1000 µg/mL (≈ 4990 µM) |  |  |  |
| 1000 µg/mL (≈ 4380 µM) | 250 µg/mL (≈ 1100 µM) |  | Oc1ccc(C=Cc2cc(O)cc(O)c2)cc1 [Resveratrol] | > 100000 µg/mL | > 100000 µg/mL |  |  |  |
|  |  | 480 µg/mL | O=C(OOC(=O)c1ccccc1)c1ccccc1 [benzoyl peroxide] |  |  | 480 µg/mL | strong antibacterial agent |  |

Reference: US20190175467A1, “COMPOSITION FOR THE TREATMENT OF ACNE” (ROTTAPHARM LTD., priority 2015, published 2019)
